# Source: patent US12016834B2, “Small molecule inhibitors of SLC25A1” (GEORGETOWN UNIVERSITY, priority 2017, dated 2024)
# Tests used:
# H1299 cells = assay: Sphere forming / self-renewal assay; type: cell-based, human; conditions: one week after treatment; BTA 2 mM, CTPI 1 mM (FIG. 9F)
# Description: Growth of monolayers and sphere cultures. Tumor cell lines were grown as monolayers in complete Dulbecco's Modified Eagle's Media (DMEM, Gibco; supplemented with 10% fetal bovine serum and 1% of 5,000 units/mL of penicillin-streptomycin (pen-strep), Gibco). To generate spheroids, cells were grown in Falcon bacteriological petri dishes coated with 2% poly(2-hydroxyethyl methacrylate) dissolved in 100% ethanol. The growth media was DMEM/F12 (Gibco) supplemented with 20 ng/mL of epidermal growth factor (EGF), 5 ng/mL of fibroblast growth factor, 0.375% 100× N2 supplements (Gibco), and 1% pen-strep. Monolayer cells were dissociated using 0.25% trypsin-edta (Gibco), whereas spheroid cultures were dissociated using StemPro Accutase (Gibco). Patient derived cell lines were grown as described below in the primary lung cultures section.
# Self-renewal assays. Tumor cells cultured as spheroids were dissociated and diluted in 2× sphere media containing 1% methyl cellulose, which was previously dissolved in cold DMEM/F12 media. Either 200, 500, or 1000 cells were then plated in each 96 well and were incubated in the presence or absence of drugs, as indicated. The spheres were allowed to form for a period of a week to ten days, at which point they were counted. Six biological replicates were used for quantification of the results.
# SLC25A1 = SLC25A1 (Homo sapiens, UniProt P53007); conditions: cited from earlier work
# SLC25A1, sequence (P53007 14-311, species assumed): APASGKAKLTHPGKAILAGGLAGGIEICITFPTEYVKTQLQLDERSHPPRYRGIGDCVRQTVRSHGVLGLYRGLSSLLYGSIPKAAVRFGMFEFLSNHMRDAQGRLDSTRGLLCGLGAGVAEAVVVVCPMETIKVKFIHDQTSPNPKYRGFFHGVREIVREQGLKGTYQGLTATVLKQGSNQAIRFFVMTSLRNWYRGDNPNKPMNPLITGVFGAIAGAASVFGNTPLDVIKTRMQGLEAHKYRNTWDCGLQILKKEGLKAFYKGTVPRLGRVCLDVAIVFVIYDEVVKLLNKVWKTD
smiles,measurement,setting,value
"O=C(O)c1cccc(C(=O)O)c1C(=O)O [BTA, 1,2,3, Benzenetricarboxylic acid]",sphere forming capacity,H1299 cells,reduced sphere forming capacity
same,concentration required for inhibition of SLC25A1,SLC25A1,millimolar concentration
